From US10758534B2 (Vertex Pharmaceuticals Incorporated, priority 2014, dated 2020)

Biological target: T1, F508del (Homo sapiens, UniProt P13569, DEL508-508)
T1 construct: expressed in transfected cells
Assay: Protocol 1: membrane potential optical assay (FLIPR III, voltage sensing dye), identification of potentiator compounds
Assay type: cell-based
Conditions: Table 3, compounds of Table 1
Outline: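 NIH 3T3 fibroblasts stably expressing F508del were cultured at 27° C for 24 hrs for temperature correction, then treated with compounds or DMSO and loaded with a voltage-sensing redistribution dye. Forskolin added with a Cl⁻ gradient activated the channel; membrane-potential fluorescence on FLIPR III reported increased gating.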

T1 sequence (P13569 with tags, fused parts or gaps DEL508-508): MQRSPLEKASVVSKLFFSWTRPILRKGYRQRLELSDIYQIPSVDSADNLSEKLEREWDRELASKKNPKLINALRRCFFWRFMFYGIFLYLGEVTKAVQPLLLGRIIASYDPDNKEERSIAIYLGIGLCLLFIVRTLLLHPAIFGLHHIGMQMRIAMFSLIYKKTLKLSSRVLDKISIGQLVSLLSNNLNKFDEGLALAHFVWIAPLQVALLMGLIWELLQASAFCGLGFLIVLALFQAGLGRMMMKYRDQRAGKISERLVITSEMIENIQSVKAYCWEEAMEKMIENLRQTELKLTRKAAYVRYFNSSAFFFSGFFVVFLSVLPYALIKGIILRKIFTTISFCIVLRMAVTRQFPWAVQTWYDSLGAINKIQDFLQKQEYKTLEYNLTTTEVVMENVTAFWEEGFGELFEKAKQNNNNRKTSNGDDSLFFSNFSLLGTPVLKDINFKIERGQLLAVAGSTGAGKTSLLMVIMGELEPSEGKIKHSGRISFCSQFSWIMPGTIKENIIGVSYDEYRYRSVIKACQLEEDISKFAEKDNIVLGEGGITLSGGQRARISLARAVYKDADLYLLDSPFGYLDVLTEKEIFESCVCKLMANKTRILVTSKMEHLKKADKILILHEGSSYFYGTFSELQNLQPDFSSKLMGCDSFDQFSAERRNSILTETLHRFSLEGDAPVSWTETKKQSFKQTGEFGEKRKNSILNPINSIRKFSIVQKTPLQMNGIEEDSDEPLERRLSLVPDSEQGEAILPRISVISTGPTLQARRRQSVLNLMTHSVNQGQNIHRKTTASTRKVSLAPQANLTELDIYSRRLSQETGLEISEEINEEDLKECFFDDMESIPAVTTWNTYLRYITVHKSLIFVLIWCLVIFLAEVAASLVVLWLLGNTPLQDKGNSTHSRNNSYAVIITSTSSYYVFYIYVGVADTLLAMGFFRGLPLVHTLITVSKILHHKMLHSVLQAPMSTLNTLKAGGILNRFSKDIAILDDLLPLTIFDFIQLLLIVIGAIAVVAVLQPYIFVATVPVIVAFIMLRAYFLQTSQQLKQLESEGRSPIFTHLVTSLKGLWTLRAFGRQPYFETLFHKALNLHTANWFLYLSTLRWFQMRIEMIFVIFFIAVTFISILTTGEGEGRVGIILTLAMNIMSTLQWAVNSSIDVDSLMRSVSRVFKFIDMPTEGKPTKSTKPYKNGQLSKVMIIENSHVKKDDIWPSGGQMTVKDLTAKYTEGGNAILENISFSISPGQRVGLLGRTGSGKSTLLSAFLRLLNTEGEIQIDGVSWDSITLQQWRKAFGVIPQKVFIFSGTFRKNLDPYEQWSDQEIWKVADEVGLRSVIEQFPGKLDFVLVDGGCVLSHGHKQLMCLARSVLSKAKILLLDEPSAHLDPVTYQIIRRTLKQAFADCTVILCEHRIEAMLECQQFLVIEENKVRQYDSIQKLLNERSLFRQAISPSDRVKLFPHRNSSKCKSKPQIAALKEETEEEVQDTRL

SMILES | EC30
CC(C)COc1cc(F)cc(-c2ccc(C(=O)NS(=O)(=O)c3ccn[nH]3)c(N3CCC[C@@H]3c3ccccc3)n2)c1 [Compound 1060, 6-(3-fluoro-5-isobutoxy-phenyl)-2-[(2R)-2-phenylpyrrolidin-1-yl]-N-(1H-pyrazol-5-ylsulfonyl)pyridine-3-carboxamide] | +++ (“+++” means <3 uM)
CC(C)COc1cc(F)cc(-c2ccc(C(=O)NS(=O)(=O)c3cccc(N)n3)c(N3CCC4(CC4)C3)n2)c1 [Compound 1061, N-[(6-amino-2-pyridyl)sulfonyl]-2-(6-azaspiro[2.4]heptan-6-yl)-6-(3-fluoro-5-isobutoxy-phenyl)pyridine-3-carboxamide] | +++ (“+++” means <3 uM)
CC(C)COc1cc(F)cc(-c2ccc(C(=O)NS(=O)(=O)c3ccccn3)c(N3CC(C)CC3(C)C)n2)c1 (stereo not drawn) [Compound 1063, 6-(3-fluoro-5-isobutoxy-phenyl)-N-(2-pyridylsulfonyl)-2-(2,2,4-trimethylpyrrolidin-1-yl)pyridine-3-carboxamide] | +++ (“+++” means <3 uM)
CC(C)(C)c1ccc(C(=O)NS(=O)(=O)c2ccc(N)cc2)c(NCc2ccccc2)n1 [Compound 1064, N-(4-aminophenyl)sulfonyl-2-(benzylamino)-6-tert-butyl-pyridine-3-carboxamide] | +++ (“+++” means <3 uM)
CC(C)COc1cc(F)cc(-c2ccc(C(=O)NS(=O)(=O)c3cccc(N)n3)c(N3CCC(C)(C)[C@H]3C)n2)c1 [Compound 1065, N-[(6-amino-2-pyridyl)sulfonyl]-6-(3-fluoro-5-isobutoxy-phenyl)-2-[(2R)-2,3,3-trimethylpyrrolidin-1-yl]pyridine-3-carboxamide] | +++ (“+++” means <3 uM)
CCC(Oc1nc(-c2cc(F)cc(OCC(C)C)c2)ccc1C(=O)NS(=O)(=O)c1cccc(N)n1)c1ccccc1 (stereo not drawn) [Compound 1068, N-[(6-amino-2-pyridyl)sulfonyl]-6-(3-fluoro-5-isobutoxy-phenyl)-2-(1-phenylpropoxy)pyridine-3-carboxamide] | +++ (“+++” means <3 uM)
CC(C)COc1cc(F)cc(-c2ccc(C(=O)NS(=O)(=O)c3ccccn3)c(N3CCC(C)(C)CC3)n2)c1 [Compound 1069, 2-(4,4-dimethyl-1-piperidyl)-6-(3-fluoro-5-isobutoxy-phenyl)-N-(2-pyridylsulfonyl)pyridine-3-carboxamide] | +++ (“+++” means <3 uM)
Cc1cc(C)c(Oc2nc(OC(C)(C)C)ccc2C(=O)NS(=O)(=O)c2cccc(N)n2)c(C)c1 [Compound 1070, N-[(6-amino-2-pyridyl)sulfonyl]-6-tert-butoxy-2-(2,4,6-trimethylphenoxy)pyridine-3-carboxamide] | +++ (“+++” means <3 uM)
CC(C)COc1cc(F)cc(-c2ccc(C(=O)NS(=O)(=O)c3cccc(N)n3)c(N3CC(=O)CC3(C)C)n2)c1 [Compound 1073, N-[(6-amino-2-pyridyl)sulfonyl]-2-(2,2-dimethyl-4-oxo-pyrrolidin-1-yl)-6-(3-fluoro-5-isobutoxy-phenyl)pyridine-3-carboxamide] | + (“+” means greater than 10 uM)
CC(C)Oc1ccc(-c2ccc(C(=O)NS(=O)(=O)c3ccn[nH]3)c(N3[C@H](C)CC[C@@H]3C)n2)cn1 [Compound 1074, 2-[(2S,5R)-2,5-dimethylpyrrolidin-1-yl]-6-(6-isopropoxy-3-pyridyl)-N-(1H-pyrazol-5-ylsulfonyl)pyridine-3-carboxamide] | ++ (“++” means between 3 uM and 10 uM)

Other lines, results leading:

EC30 | SMILES
++ (“++” means between 3 uM and 10 uM) | Cc1cc(C)c(CN2CCc3ccccc3CC2C(=O)NS(=O)(=O)c2cccc(N)n2)c(C)c1 (stereo not drawn) [Compound 1055, N-[(6-amino-2-pyridyl)sulfonyl]-3-[(2,4,6-trimethylphenyl)methyl]-1,2,4,5-tetrahydro-3-benzazepine-4-carboxamide]
+++ (“+++” means <3 uM) | Cc1cc(C)c(Oc2nc(-c3ccc4ccn(C)c4c3)ccc2C(=O)NS(=O)(=O)c2cccc(N)n2)c(C)c1 [Compound 1056, N-[(6-amino-2-pyridyl)sulfonyl]-6-(1-methylindol-6-yl)-2-(2,4,6-trimethylphenoxy)pyridine-3-carboxamide]
+ (“+” means greater than 10 uM) | Cc1cc(C)c(Oc2nc(-c3ccnn3C)ccc2C(=O)NS(=O)(=O)c2cccc(N)n2)c(C)c1 [Compound 1057, N-[(6-amino-2-pyridyl)sulfonyl]-6-(2-methylpyrazol-3-yl)-2-(2,4,6-trimethylphenoxy)pyridine-3-carboxamide]
+++ (“+++” means <3 uM) | CC(C)CNc1cccc(-c2ccc(C(=O)NS(=O)(=O)c3cccc(N)n3)c(N3CC(C)CC3(C)C)n2)n1 (stereo not drawn) [Compound 1059, N-[(6-amino-2-pyridyl)sulfonyl]-6-[6-(isobutylamino)-2-pyridyl]-2-(2,2,4-trimethylpyrrolidin-1-yl)pyridine-3-carboxamide]
+++ (“+++” means <3 uM) | CC1CN(c2nc(-c3cccc(OCC(C)(C)C)n3)ccc2C(=O)NS(=O)(=O)c2cccc(N)n2)C(C)(C)C1 (stereo not drawn) [Compound 1062, N-[(6-amino-2-pyridyl)sulfonyl]-6-[6-(2,2-dimethylpropoxy)-2-pyridyl]-2-(2,2,4-trimethylpyrrolidin-1-yl)pyridine-3-carboxamide]
++ (“++” means between 3 uM and 10 uM) | Cc1ccc(-c2ccc(C(=O)NS(=O)(=O)c3nccnc3N)c(NCC3(C)CCOCC3)n2)cc1 [Compound 1066, N-(3-aminopyrazin-2-yl)sulfonyl-2-[(4-methyltetrahydropyran-4-yl)methylamino]-6-(p-tolyl)pyridine-3-carboxamide]
+++ (“+++” means <3 uM) | CC1CN(c2nc(-c3cnn(C(C)C)c3)ccc2C(=O)NS(=O)(=O)c2cccc(N)n2)C(C)(C)C1 (stereo not drawn) [Compound 1067, N-[(6-amino-2-pyridyl)sulfonyl]-6-(1-isopropylpyrazol-4-yl)-2-(2,2,4-trimethylpyrrolidin-1-yl)pyridine-3-carboxamide]
+++ (“+++” means <3 uM) | Cn1ccc2cccc(Oc3nc(C(C)(C)C)ccc3C(=O)NS(=O)(=O)c3cccc(N)n3)c21 [Compound 1071, N-[(6-amino-2-pyridyl)sulfonyl]-6-tert-butyl-2-(1-methylindol-7-yl)oxy-pyridine-3-carboxamide]
++ (“++” means between 3 uM and 10 uM) | CC(C)Oc1ccc(-c2ccc(C(=O)NS(=O)(=O)c3cccc(N)n3)c(N3Cc4ccccc4C3)n2)cn1 [Compound 1072, N-[(6-amino-2-pyridyl)sulfonyl]-2-isoindolin-2-yl-6-(6-isopropoxy-3-pyridyl)pyridine-3-carboxamide]
+++ (“+++” means <3 uM) | COc1cccc2c1C(C)(C(=O)NS(=O)(=O)c1cccc(N)n1)N(Cc1c(C)cc(C)cc1C)C2 (stereo not drawn) [Compound 1075, N-[(6-amino-2-pyridyl)sulfonyl]-7-methoxy-1-methyl-2-[(2,4,6-trimethylphenyl)methyl]isoindoline-1-carboxamide]
+++ (“+++” means <3 uM) | CCC(CC)Oc1ccc(-c2ccc(C(=O)NS(=O)(=O)c3cccc(N)n3)c(N3CC(C)CC3(C)C)n2)cn1 (stereo not drawn) [Compound 1076, N-[(6-amino-2-pyridyl)sulfonyl]-6-[6-(1-ethylpropoxy)-3-pyridyl]-2-(2,2,4-trimethylpyrrolidin-1-yl)pyridine-3-carboxamide]
